The source of these data is PMC10428208, “Phototoxicity of Tridentate Ru(II) Polypyridyl Complex with Expanded Bite Angles toward Mammalian Cells and Multicellular Tumor Spheroids” (Inorganic Chemistry, 2023).

Where two headings read alike, the source gives them in different places. Marks after values point to notes of the source that are not given here. Bounds are passed on as bounds.

In one series the test system is HL60 leukemia cells. Also noted: method as in PMID 22553960. The following applies: cited from earlier work.
A further series concerns A549 cell monolayers. Also noted: method as in PMID 22553960. The following applies: cited from earlier work.
Series [1] relates to A549 cells. The following applies: read-out: IC50, dark toxicity; A549, 24 h incubation in the dark, alamar blue added immediately, no recovery, N=3. The protocol:
(§1) The alamar blue assay (Invitrogen) was used to assess the viability of A549, CHO, and HPAC cell monolayers treated with the Ru(II) probes, Ru-bqp-ester, Ru-bqp-MPP, Ru-bqp-R8. CHO, A549, and 2D HPAC cells were seeded in a 96-well plate (Nunc, flat bottom cell culture treated) at 1 × 10^4 cells per well, i.e., in 100 μL media for 24 h at 37 °C with 5% CO2. Ru-bqp-ester, Ru-bqp-R8, and Ru-bqp-MPP were added for 24 h at 37 °C and 5% CO2 in the absence of light. The alamar blue (Resazurin) assay was performed to measure cell viability by replacing the test solution with 100 μL of a 10% v/v media/resazurin solution and incubating for 5 h at 37 °C in the absence of light. Absorbance was measured using a BMG Labtech ClarioStar (plus) plate reader at 570 and 600 nm (corrected for background subtraction). Cell viability is presented as a percentage (%) compared to untreated control wells.
(§2) The alamar blue (Resazurin) assay was used to assess cell viability of CHO, A549, and HPAC cell monolayers after 24 h incubation in the dark with the complexes and conjugates. In the presence of metabolically active cells, the alamar blue dye is reduced to resorufin and changes from navy blue to a pink color depending on the number of viable cells. Thus, this assay can be used as a simple direct indicator of cell viability. […]
On the technique in general: Resazurin is reduced to fluorescent resorufin, in cell work by metabolically active cells.

Series [2] relates to CHO cells. Type of series: cell-based, Chinese hamster. The following applies: 24 h incubation in the dark, alamar blue added immediately, no recovery, N=3, read-out: IC50, dark toxicity. The procedure: as §1, §2
The subject of another series is HPAC cell monolayers. Type of series: cell-based, human. The note with it: 24 h incubation in the dark, alamar blue added immediately, no recovery, N=3, read-out: IC50, dark toxicity. The protocol: as §1, §2
Series [3] relates to A549 cells. The procedure: (§3) All cell monolayers were prepared as described above for the phototoxicity assay. A549 and CHO cells were treated at varying concentrations of the complexes and incubated for 30 min in the absence of light, HPAC were incubated for 2 h to allow uptake. A 470 nm blue light LED array was used to irradiate the cells in the wells at a total dose of 17 ± 1.64 J/cm^2 (2 h at 2.37 ± 0.23 mW/cm^2). A dark control plate was performed alongside all phototoxicity plates. Irradiation conditions were tested on untreated cells to confirm cells remained viable at this dose before any experiments were performed and each phototoxicity plate included untreated test wells for cell viability comparison. All viability assays were performed in triplicate.
The phototoxicities of the Ru-bqp-ester, Ru-bqp-R8, and Ru-bqp-MPP were next compared across the three cell line monolayers. Two identical plates, a dark control and phototoxicity plate, were prepared and incubated with varying concentrations of Ru-bqp-ester, Ru-bqp-R8, and Ru-bqp-MPP for 30 min or 2 h depending on the cell line. The test solutions were then decanted, and the wells replaced with phenol red free media. The phototoxicity plate was irradiated using a 470 nm LED, corresponding to which is close to the absorbance maximum associated with the ^1MLCT of the complex, total irradiation dose 17 ± 1.64 J/cm^2 (constituting 2 h at 2.37 ± 0.23 mW/cm^2) at 37 °C, and the control plate was maintained under the same conditions in the dark. The cells were then incubated for a further 21.5 h at 37 °C with 5% CO2 to allow for cell recovery. An alamar blue assay was performed to assess cell viability.
To overcome potential efflux of the complexes from the A549 cells, a shorter complex incubation time of 30 min was selected prior to irradiation.

Series [4] concerns CHO cells. As to the kind of experiment: Phototoxicity with dark control plate, 470 nm LED, alamar blue. Type of series: cell-based, Chinese hamster. The following applies: 30 min incubation, 470 nm LED 17 J/cm^2, alamar blue, triplicate, read-out: IC50 under irradiation. The procedure: as §3
The test solutions were then decanted, and the wells replaced with phenol red free media. The phototoxicity plate was irradiated using a 470 nm LED, corresponding to which is close to the absorbance maximum associated with the ^1MLCT of the complex, total irradiation dose 17 ± 1.64 J/cm^2 (constituting 2 h at 2.37 ± 0.23 mW/cm^2) at 37 °C, and the control plate was maintained under the same conditions in the dark. […]
Similar to the phototoxicity studies in A549 cells, an incubation time of 30 min was selected for CHO cells to allow uptake. […] Cell viability was determined relative to untreated control wells using an alamar blue assay. […]

The next series relates to HPAC 2D cell monolayers. Type of series: cell-based, human. The procedure:
as §3
The test solutions were then decanted, and the wells replaced with phenol red free media. The phototoxicity plate was irradiated using a 470 nm LED, corresponding to which is close to the absorbance maximum associated with the ^1MLCT of the complex, total irradiation dose 17 ± 1.64 J/cm^2 (constituting 2 h at 2.37 ± 0.23 mW/cm^2) at 37 °C, and the control plate was maintained under the same conditions in the dark. The cells were then incubated for a further 21.5 h at 37 °C with 5% CO2 to allow for cell recovery. An alamar blue assay was performed to assess cell viability.
The HPAC cells required a longer incubation period of 2 h prior to irradiation to account for slower uptake. […] In summary, Ru-bqp-ester is minimally toxic in the dark but highly phototoxic in all test cells when activated using a 470 nm LED. Furthermore, the peptide conjugates Ru-bqp-R8 and Ru-bqp-MPP show phototoxic potential in cancerous cell lines A549 and HPAC selected for analysis. The increased uptake of the MPP peptide conjugate into the mitochondria, as determined by our co-localization studies, could be linked to the higher phototoxicity of the complex in A549 and HPAC cells and also the increased dark toxicity in HPAC and CHO cell monolayers in comparison to the parent and R8 peptide conjugate.

Series [5] relates to HPAC multicellular spheroids (3D). Format: cell-based, human. The note with it: 24 h treatment, 23.5 h recovery, CellTiter-Glo 3D, average of three plates. The procedure:
Spheroid viability was evaluated using a CellTiter-Glo 3D assay. Although the alamar blue assay is a robust and reliable option for 2D cell viability, the CellTiter-Glo 3D assay is specifically designed to penetrate deeper into 3D cell culture and thus offers better specificity for these studies. Cells were seeded in round-bottom 96 well plates at 2 × 10^4 cells per well and grown for 96 h. The cells were treated for 24 h and a media change performed. A 470 nm LED was used to irradiate the spheroids at 4.27 ± 0.41 J/cm^2 (30 min at 2.37 ± 0.23 mW/cm^2) and a dark control plate was performed simultaneously. Irradiation conditions were tested on untreated spheroids to confirm whether viability remained unaffected at this irradiation dosage before any experiments were performed. The spheroids were allowed to recover and the CellTiter-Glo 3D assay was performed to determine cell viability as per the manufacturer’s protocol. Percentage cell viability was determined relative to the untreated control spheroids.
The dark and phototoxicity of the parent and peptide conjugates were also assessed in HPAC spheroids. […] Cell viability was determined using the CellTiter-Glo 3D luminescence-based assay, and viability assays were performed in triplicate. […] As in the 2D alamar blue assay protocol, % viability is calculated relative to untreated control spheroids.

A short description of series [6]: Photophysical measurements (luminescence lifetime, quantum yield). Format: physicochemical. The procedure:
Absorbance measurements of the Ru(II) complexes at 20 μM were performed using a Jasco V670 spectrophotometer. Emission spectra were collected using a Varian Cary Eclipse fluorescence spectrophotometer and luminescent lifetime measurements were performed on a PicoQuant FluoTime 100 FLS TCSPC system using a 450 nm pulsed laser and an external pulse generator. Lifetime decay curves were analyzed using the PicoQuant Fluofit software with fitting criteria; 0.9 < X^2 < 1.1. For O2 sensitivity studies, the emission spectrum and luminescent lifetime of each complex (10 μM) were recorded under O2 saturation, and after N2 purge for 20 min. All measurements were performed in triplicate and reported as the mean ± SD.

On the set-up of series [7]: method as in doi:10.3390/organoids1020012, PMID 35485712. The following applies: previously published, 298 K, deaerated MeOH/EtOH solution; printed in the MeCN row; cited from earlier work.
The test system of another series is HPAC spheroids. As to the kind of experiment: Uptake in spheroids, confocal imaging. The following applies: 24 h incubation.
A further series has as its system HeLa cells. The note with it: irradiation dose of 5 J/cm^2; cited from earlier work. The source says: It is important to highlight that a direct comparison between the other reported PIs is difficult to make because of the diversity of conditions used to determine PI values. Because PI is influenced by a range of factors, including the cell type extent of permeability of a given agent and the irradiation dose.[72] […] Based on control studies with untreated CHO, A549, and HPAC cell monolayers, we selecte ...

Method for HPAC spheroids: HPAC cells were seeded in U-bottom 96 well-plates pre-treated with 0.5% polyHEMA [poly(2-hydroxyethyl methacrylate), Sigma in 95% ethanol] at 2 × 10^4 cells per well. The plate was then centrifuged at 700 rpm at 37 °C using a BMG Labtech ClarioStar (plus) plate reader for 10 min. The cells were incubated for 96 h to allow spheroid formation before any dye was added for imaging studies. Ru-bqp-ester, Ru-bqp-MPP, and Ru-bqp-R8 were added to the spheroids at 30 and 100 μM in the 96 well plates and after 24 h incubation, the spheroids were carefully transferred to an 8-chamber slide (ibidi), with a single spheroid per chamber, and directly imaged using a Leica TCS DMi8 confocal microscope (40× oil immersion objective). Hoechst 33342 nuclear stain (1 μg/mL) was added to the spheroids for 45 min as a contrast agent and excited using a 405 nm laser with emission collected between 425 and 475 nm. The Ru(II) complexes were excited using a white light laser at 490 nm and emission collected between 580 and 730 nm. Spheroid images were acquired using z-scanning across the z-axis of the samples. On average, 40–50 images were acquired per z-scan and used to obtain 3D spheroid reconstructions using Leica Application Suite X (LAS X) software.
Confocal fluorescence imaging was performed to determine if the cellular uptake observed in 2D culture extends to 3D models. […]

`NCC(=O)CCC(=O)O` [ALA, aminolevulinic acid]: the results for the PI in the series on HL60 leukemia cells and in the series on A549 cell monolayers were more than 18 and 4.2, respectively.
In general, IC50 refers to the concentration that inhibits the measured activity by half. With [Ru(bqp)(bqpCOOEt)]^2+ [Ru-bqp-ester], the IC50 in the series with A549 cells [1] was more than 100 µM; in the series on CHO cells [2] it was more than 100 µM; with HPAC cell monolayers, more than 100 µM; in the series with A549 cells [3] (read-out: IC50 under irradiation, A549, 30 min incubation, 470 nm LED 17 ± 1.64 J/cm^2 (2 h), 21.5 h recovery, alamar blue), less than 5 µM; in the series with CHO cells [4], less than 5 µM; with HPAC 2D cell monolayers (2 h incubation, 470 nm LED 17 J/cm^2, read-out: IC50 under irradiation, HPAC cells), 0.77 ± 0.11 µM. Further, the IC50 in the series with HPAC 2D cell monolayers (dark control plate, 2 h incubation then recovery in the dark, alamar blue, average of three plates, triplicate per plate, read-out: IC50 dark, HPAC 2D cell monolayers) is 585 ± 6.28 µM; in [5] (470 nm LED 4.27 ± 0.41 J/cm^2 (30 min), read-out: IC50 light, HPAC multicellular spheroids (3D)) it was more than 100 µM; in series [5] (dark control plate, read-out: IC50 dark, HPAC multicellular spheroids (3D)), more than 100 µM. For the same molecule, the “cell viability, A549 dark control” value with A549 cells [3] (dark control plate, 30 min incubation, up to 100 μM, not graphed) is given as more than 80%. Also, in the series with A549 cells [3] (dose of <5 μM, 30 min incubation, 470 nm LED 17 J/cm^2), the “A549 cells dead following photoirradiation” value is on record as “More than 70%”. Besides, the “PI (phototoxic index), HPAC 2D cell monolayers” value in the series with HPAC 2D cell monolayers (ratio of dark to light IC50 values, 17 ± 1.64 J/cm^2 at 470 nm) came out at 760. The τlum aerated is recorded as 384 ± 1 ns in series [6] (MeCN, mean ± SD of triplicate) and 782 ± 18 ns in [6] (PBS (pH 7.4), 450 nm pulsed laser, TCSPC, mean ± SD of triplicate). Besides, the τlum deaerated in series [6] (PBS (pH 7.4), deaerated (N2 purge 20 min), mean ± SD of triplicate) is reported as 1320 ± 20 ns; in [7], 4300 ^a ns. Further, the “emission lifetime on deaeration” value in series [6] (PBS buffer (pH 7.4), deaerated) is given as “over 1.3 μs”. Also, the emission quantum yield Φ in series [7] was 4%. Besides, the “uptake in HPAC spheroids” value is recorded as “some uptake” with HPAC spheroids (30 μM) and “complete internalization” in the series on HPAC spheroids (100 μM).
Photofrin: in the series with HeLa cells, the PI is more than 10.
